Measured values: patent publication US6515002B2, “Compounds and compositions for treating C1s-mediated diseases and conditions” (3-Dimensional Pharmaceuticals, Inc., priority 1999, dated 2003)

Molecular target: T1, C1s (Homo sapiens, UniProt P09871)
T1 construct: purchased Enzyme Research, South Bend, Ind
T1 sequence (P09871 438-688 limits assumed): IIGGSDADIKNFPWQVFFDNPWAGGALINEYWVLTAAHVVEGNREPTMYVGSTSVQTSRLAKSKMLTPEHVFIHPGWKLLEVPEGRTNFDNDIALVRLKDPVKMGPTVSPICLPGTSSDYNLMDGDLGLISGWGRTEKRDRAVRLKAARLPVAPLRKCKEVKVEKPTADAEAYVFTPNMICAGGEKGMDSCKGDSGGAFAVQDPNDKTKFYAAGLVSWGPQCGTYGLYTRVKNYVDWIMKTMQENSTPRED
T1 sequence (P09871 16-437 partner limits assumed): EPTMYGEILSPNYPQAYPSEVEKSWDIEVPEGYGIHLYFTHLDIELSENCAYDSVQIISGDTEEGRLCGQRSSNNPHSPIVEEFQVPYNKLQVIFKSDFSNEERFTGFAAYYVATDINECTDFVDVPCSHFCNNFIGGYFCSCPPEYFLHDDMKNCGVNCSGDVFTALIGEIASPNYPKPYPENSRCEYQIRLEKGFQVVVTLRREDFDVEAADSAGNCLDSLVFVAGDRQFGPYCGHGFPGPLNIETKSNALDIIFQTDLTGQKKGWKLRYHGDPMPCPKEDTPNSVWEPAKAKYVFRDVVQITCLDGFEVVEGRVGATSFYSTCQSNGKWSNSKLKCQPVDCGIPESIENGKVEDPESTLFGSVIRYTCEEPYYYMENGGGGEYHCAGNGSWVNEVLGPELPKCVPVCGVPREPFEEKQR
Assay: In vitro Inhibition of C1s (Ki determination, Z-Gly-Arg-5-Bzl/DTNB hydrolysis)
Format: biochemical
Settings: purified activated C1s 7.3 nM, substrate Z-Gly-Arg-5-Bzl 45 μM, DTNB 200 μM, pH 7.5, 37° C.
Description: Reagents: All buffer salts were obtained from Sigma Chemical Company (St. Louis, Mo.), and were of the highest purity available.
Ki Determinations: All assays are based on the ability of the test compound to inhibit the Cis catalyzed hydrolysis of the substrate Z-Gly-Arg-5-Bzl via an intermediate reaction with 5,5′-dithio-bis(2-nitrobenzoic acid) (DTNB). [Complement C1s is available commercially from Enzyme Research, South Bend, Ind.] In a typical Ki determination, substrate is prepared in DMSO, and diluted into an assay buffer consisting of 50 mM HEPES, 200 mM NaCl, pH 7.5. […] In general, substrate concentrations are lower than the experimentally determined value for Km. […]
In a typical Ki determination, into each well of a 96-well plate is pipetted 280 μL of substrate solution, 10 μL of test compound solution, and the plate allowed to thermally equilibrate at 37° C. for 15 minutes. Reactions were initiated by the addition of a 10 μL aliquot of the enzyme and the absorbance increase at 405 nm is recorded for 5 minutes in a Molecular Devices plate reader. […] The ratio of the velocity (rate of change in absorbance as a function of time) for a sample containing no test compound is divided by the velocity of a sample containing test compound, and is plotted as a function of test compound concentration. The data are fit to a linear regression, and the value of the slope of the line calculated. […]

Ki: 30 nM
Substance: 4-[4-(3-{[(2,4-Difluorophenyl)sulfonyl]amino}phenyl)(1,3-thiazol-2-yl)]-5-methylthiophene-2-carboxamidine [Example 290]
